{"source": "patent US20240298636A1", "about": "“ANTIMICROBIAL AGENTS AND FILMS MADE THEREFROM” (YISSUM RESEARCH DEVELOPMENT COMPANY OF THE HEBREW …, priority 2021, published 2024)", "test": "QCM-D analysis of peptide adsorption and Cu binding", "assay_type": "physicochemical", "conditions": "for loaded mass/area of the peptide: 1.5 mg/mL in Tris buffer pH 8.5, after washing, Sauerbrey equation, 5th overtones", "description": "Quartz Crystal Microbalance with Dissipation (QCM-D) Analysis: The peptides' adsorption and the metal-binding capabilities were studied using QCM-D (Q-sense, Biolin Scientific). The measurements were performed in a flow module E1 system with SiO2 sensors with a fundamental resonant frequency of 5 MHz (Qsense). The sensors were cleaned according to the supplier instructions. The experiments were performed under flow-through conditions using a digital peristaltic pump (IsmaTec Peristaltic Pump, IDEX). The peptide (1.5 mg/mL), control peptide (1.5 mg/mL), and CuCl2 (0.8 mg/mL) were dissolved in a filtered Tris buffer solution (pH=8.5, 10 mM). The solutions were injected circularly into the sensor crystal chamber at a rate of 0.1 mL/min. The peptide solution flowed for -4 h, the control peptide for −80 min, and the CuCl2 solution for -2 h. Between and after the coatings, the sensor was washed with the same Tris buffer solution. The adsorbed mass was calculated according to the Sauerbrey equation using the 5th overtones.", "data": [{"substance": "NH2-(Phe)2-(His)6-OH [reference compound]", "values": [{"measurement": "loaded mass/area of the peptide", "value": "~12", "unit": "ng/cm^2"}]}, {"substance": "NH2-DOPA-(Phe)2-(His)6-OH [peptide]", "values": [{"measurement": "loaded mass/area of the peptide", "value": "~96", "unit": "ng/cm^2"}, {"measurement": "loaded mass/area of Cu bound to the peptide layer", "setting": "Cu(II) solution (CuCl2 0.8 mg/mL) after washing with the buffer", "value": "~9", "unit": "ng/cm^2"}, {"measurement": "ratio of Cu ions per each peptide molecule", "setting": "from loaded mass/area values", "value": "~2"}]}]}
